Patent US20230148299A1, “FEM1B PROTEIN BINDING AGENTS AND USES THEREOF” (The Regents Of The University Of California, priority 2020, published 2023)

Columns and labels:
[1] = tested on: GFP-Fnip1 degron reporter; assay: GFP-Fnip1 degron reporter (GFP/mCherry) by flow cytometry; format: cell-based; conditions: HEK293T cells, reporter +/- Fem1b, 20 μM, 8 hours
Protocol: HEK293T cells were transfected 24 hours before flow cytometery with the GFP-Fnip1 degron reporter+/−Fem1b.
FNIP1 variants were expressed in cells and tested for interaction with ^FLAGFEM1B by co-immunoprecipitation, and for degradation by measuring their abundance in the presence or absence of FEM1B. […] FEM1B variants were immunoprecipitated and bound FNIP1 and FLCN were detected by Western blotting. […] The FNIP1 degron was fused to GFP (GFP^degron) and expressed from the same plasmid as an IRES controlled mCherry. mCherry provides normalization for GFP fluorescence in each cell. […] Levels of GFP^degron and mCherry were determined by FACS, and their ratio is depicted for presence or absence of FEM1B variants. […] Cells were transfected with the GFP^degron/mCherry reporter, and analyzed for GFP and mCherry fluorescence by FACS. […] A TAMRA-labeled FNIP1 degron peptide was incubated with purified FEMIB or the control CRL1 adaptor FBXL17, and binding was measured by fluorescence polarization of the peptide. […] The TAMRA-labeled FNIP1 degron was incubated with recombinant CUL2^FEM1B (unmodified or NEDD8-modified), E1, ubiquitin, ATP and the E2 enzymes UBE2D3 and/or UBE2R1. Ubiquitylation was monitored by gel electrophoresis and fluorescence detection.

FEM1B [2] = biological target: T1, FEM1B (Homo sapiens, UniProt Q9UK73); assay: Gel-based ABPP of EN106 against FEM1B and site identification; format: binding; conditions: C186
T1 sequence (Q9UK73 whole entry, the tested form may be a part): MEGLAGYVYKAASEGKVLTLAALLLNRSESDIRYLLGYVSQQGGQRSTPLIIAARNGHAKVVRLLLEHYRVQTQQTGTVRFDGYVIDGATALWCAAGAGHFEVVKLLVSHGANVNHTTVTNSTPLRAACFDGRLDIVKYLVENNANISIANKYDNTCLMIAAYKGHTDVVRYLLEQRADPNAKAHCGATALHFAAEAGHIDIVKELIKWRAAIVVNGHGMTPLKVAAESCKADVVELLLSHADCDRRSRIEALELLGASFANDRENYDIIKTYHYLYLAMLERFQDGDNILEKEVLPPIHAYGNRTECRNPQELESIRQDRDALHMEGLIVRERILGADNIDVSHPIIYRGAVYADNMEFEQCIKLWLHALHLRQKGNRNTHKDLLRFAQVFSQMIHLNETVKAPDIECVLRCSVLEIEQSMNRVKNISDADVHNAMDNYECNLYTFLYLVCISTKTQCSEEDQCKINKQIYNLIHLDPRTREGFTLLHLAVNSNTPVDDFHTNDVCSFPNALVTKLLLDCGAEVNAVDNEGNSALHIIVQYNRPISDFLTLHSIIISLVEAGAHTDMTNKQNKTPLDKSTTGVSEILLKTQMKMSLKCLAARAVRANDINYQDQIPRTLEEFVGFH
Text: FIGS. 12A-12B. […] FIG. 12A: Gel-based ABPP of EN106 against FEM1B. FIG. 12B: EN106 targets C186 in FEM1B. C186 is critical for substrate recognition of FEM1B. Sequence shown is: […] (residues 183-205 of SEQ ID NO:1).

FEM1B [3] = biological target: T1, FEM1B; assay: EN106-alkyne pulldown and isoTOP-ABPP in HEK293T cells; format: cell-based; design: endogenous in cells; host or cells: HEK293T; conditions: EN106 10 μM 2 h (isoTOP-ABPP), EN106-alkyne pulldown
Protocol: FIGS. 14A-14C. […] FIG. 14A: Structures of EN106 and EN106-alkyne (NJH-2-030). FIG. 14B: EN106-alkyne pulldown. See Example 4 for experimental procedure. FIG. 14C: HEK293T cells were treated with vehicle or EN106 (10 μM) for 2 h and cell lysates were subjected to the isoTOP-ABPP protocol described in Example 4.
EN106-alkyne pulldown protocol. HEK293T cells were treated with DMSO or 10 μM NJH-2-030 in situ for 8 h. Cells were harvested, lysed via sonication and normalized to 2.0 mg/mL. Following normalization, 100 μL of each lysate sample was removed for Western blot analysis of input, and 500 μL of each lysate sample was incubated for 1 h at room temperature with 10 μL of 5 mM biotin picolyl azide (in water) (Sigma Aldrich 900912), 10 μL of 50 mM TCEP (in water), 30 μL of TBTA ligand (0.9 mg/mL in DMSO:t-butanol=1:4), and 10 μL of 50 mM Copper (II) Sulfate (12.5 mg/mL in water). Proteins were precipitated, washed 3×1 mL with cold MeOH, resolubilized in 1 mL of 1.2% SDS/PBS (w/v), heated for 5 min at 90° C., and centrifuged to remove any insoluble components. […] Proteins in each sample were then analyzed by Western blotting to look for enriched FEM1B versus non-enriched GAPDH.
IsoTOP-ABPP Chemoproteomic Experiment. […] Cells were lysed by probe sonication in PBS and protein concentrations were measured by BCA assay. […]

FEM1B-FNIP1 = FEM1B-FNIP1 (Homo sapiens, UniProt Q9UK73); assay: Fluorescence polarization between FEM1B and FNIP1 (covalent ligand screen); format: binding; conditions: DMSO = 100, FP between FEM1B and FNIP1
FEM1B-FNIP1, sequence (Q9UK73 whole entry): as the sequence (Q9UK73 whole entry, the tested form may be a part) above
Text: FIG. 11. Fluorescence polarization screen to identify functional FEM1B-FNIP1-targeting covalent ligands.
FEM1B binds a conserved central degron in FNIP1. Deletion analysis of FNIP1 identifies a stretch of 20 amino acids that is required for its binding to FEM1B and its proteasomal degradation. FNIP1 variants were expressed in cells and tested for interaction with ^FLAGFEM1B by co-immunoprecipitation, and for degradation by measuring their abundance in the presence or absence of FEM1B. The FNIP1 degron is required for FEM1B binding and proteasomal degradation. […] FEM1B variants were immunoprecipitated and bound FNIP1 and FLCN were detected by Western blotting. The FNIP1 degron is sufficient to mediate FEM1B-dependent degradation. The FNIP1 degron was fused to GFP (GFP^degron) and expressed from the same plasmid as an IRES controlled mCherry. mCherry provides normalization for GFP fluorescence in each cell. […] Levels of GFP^degron and mCherry were determined by FACS, and their ratio is depicted for presence or absence of FEM1B variants. Deletion of FEM1B prevents FNIP1-degron dependent degradation. The FEM1B locus was deleted in 293T cells using CRISPR/Cas9. Cells were transfected with the GFP^degron/mCherry reporter, and analyzed for GFP and mCherry fluorescence by FACS. FEM1B directly binds the FNIP1 degron in vitro. A TAMRA-labeled FNIP1 degron peptide was incubated with purified FEMIB or the control CRL1 adaptor FBXL17, and binding was measured by fluorescence polarization of the peptide. The FNIP1 degron is sufficient to mediate CUL2^FEM1B-dependent ubiquitylation. The TAMRA-labeled FNIP1 degron was incubated with recombinant CUL2^FEM1B (unmodified or NEDD8-modified), E1, ubiquitin, ATP and the E2 enzymes UBE2D3 and/or UBE2R1. Ubiquitylation was monitored by gel electrophoresis and fluorescence detection.

Structure (SMILES): N#CCCN(C(=O)CCl)c1ccc2c(c1)OCCO2 [EN106, 2-chloro-N-(2-cyanoethyl)-N-(2,3-dihydrobenzo[b][1,4]dioxin-6-yl)acetamide]
- inhibition of FEM1B in cells / FNIP1 stabilization [1]: inhibits endogenous and overexpressed FEM1B in cells and stabilizes FNIP1
- covalent targeting of FEM1B cysteine (FEM1B [2]): covalently targets C186 on FEM1B
- FEM1B engagement in cells (FEM1B [3]): engages FEM1B in cells
- remaining activity at 5 µM (FEM1B-FNIP1; compound at 5 μM, read-out: Normalized FP 5 μM): 50.6%
- activity at 50 µM (FEM1B-FNIP1; compound at 50 μM, read-out: Normalized FP 50 μM): 4.2%
